The values below come from paper PMC5218480 (PLoS ONE, 2017).

This assay deals with MV-4-11 cells. Kind of assay: Gene expression microarray analysis (Affymetrix PrimeView) and GSEA. It counts as cell-based, human. Conditions: MV-4-11 cells, 48 hours. On the set-up: RFU PODN (11730768_x_at) / Fold change /veh PODN (11730768_x_at) / RFU LINC00158 (11744669_a_at) / Fold change /veh LINC00158 (11744669_a_at) / RFU DUSP10 (11751237_a_at) / Fold change /veh DUSP10 (11751237_a_at) / RFU ID3 (11757404_x_at) / Fold change /veh ID3 (11757404_x_at) / RFU PLEKHG5 (11737974_s_at) / Fold change /veh PLEKHG5 (11737974_s_at) / RFU LRRC4B (11730491_at) / Fold change /veh LRRC4B (11730491_at) / RFU GIMAP4 (11747438_a_at) / Fold change /veh GIMAP4 (11747438_a_at) / RFU KRT8 (11758183_x_at) / Fold change /veh KRT8 (11758183_x_at) / RFU CNN1 (11734310_a_at) / Fold change /veh CNN1 (11734310_a_at) / RFU VPS37D (11726825_at) / Fold change /veh VPS37D (11726825_at) / RFU C10orf10 (11716522_x_at) / Fold change /veh C10orf10 (11716522_x_at) / RFU KIR2DL2 /// KIR2DL4 /// KIR2DL5A /// KIR2DL5B /// KIR2DS1 /// KIR2DS2 /// KIR2DS3 /// KIR2DS4 /// KIR3DL3 /// KIR3DL3 /// KIR3DS1 (11738374_at) / Fold change /veh KIR2DL2 /// KIR2DL4 /// KIR2DL5A /// KIR2DL5B /// KIR2DS1 /// KIR2DS2 /// KIR2DS3 /// KIR2DS4 /// KIR3DL3 /// KIR3DL3 /// KIR3DS1 (11738374_at) / RFU C1QL1 (11718748_at) / Fold change /veh C1QL1 (11718748_at) / RFU TMPRSS4 (11747572_a_at) / Fold change /veh TMPRSS4 (11747572_a_at) / RFU HAMP (11756126_x_at) / Fold change /veh HAMP (11756126_x_at) / RFU RNFT2 (11725882_a_at) / Fold change /veh RNFT2 (11725882_a_at) / RFU NR4A2 (11747474_a_at) / Fold change /veh NR4A2 (11747474_a_at) / RFU ABCC12 (11746883_a_at) / Fold change /veh ABCC12 (11746883_a_at) / RFU TMEM136 (11760407_x_at) / Fold change /veh TMEM136 (11760407_x_at) / RFU CLDN22 /// WWC2 (11732394_at) / Fold change /veh CLDN22 /// WWC2 (11732394_at) / RFU HLA-DPB1 (11760878_x_at) / Fold change /veh HLA-DPB1 (11760878_x_at) / RFU SPINT1 (11716480_a_at) / Fold change /veh SPINT1 (11716480_a_at) / RFU GAP43 (11754022_s_at) / Fold change /veh GAP43 (11754022_s_at) / RFU A4GNT (11735810_at) / Fold change /veh A4GNT (11735810_at) / RFU PRB3 (11715151_x_at) / Fold change /veh PRB3 (11715151_x_at) / RFU TUBB4B (11761932_at) / Fold change /veh TUBB4B (11761932_at) / RFU CAPN14 (11732068_a_at) / Fold change /veh CAPN14 (11732068_a_at) / RFU TMCC2 (11721928_a_at) / Fold change /veh TMCC2 (11721928_a_at) / RFU IRGQ (11745062_a_at) / Fold change /veh IRGQ (11745062_a_at) / RFU FAM174B (11720279_a_at) / Fold change /veh FAM174B (11720279_a_at) / RFU TMPRSS4 (11748680_a_at) / Fold change /veh TMPRSS4 (11748680_a_at) / RFU FAM212B (11763350_a_at) / Fold change /veh FAM212B (11763350_a_at) / RFU PLEKHG5 (11743358_a_at) / Fold change /veh PLEKHG5 (11743358_a_at) / RFU ZSCAN30 (11745921_a_at) / Fold change /veh ZSCAN30 (11745921_a_at) / RFU CMKLR1 (11741424_a_at) / Fold change /veh CMKLR1 (11741424_a_at) / RFU LOC101060620 /// MAPK8IP1 (11723275_at) / Fold change /veh LOC101060620 /// MAPK8IP1 (11723275_at) / RFU SPTSSB (11747773_x_at) / Fold change /veh SPTSSB (11747773_x_at) / RFU PRSS12 (11739890_at) / Fold change /veh PRSS12 (11739890_at) / RFU BIN1 (11741810_x_at) / Fold change /veh BIN1 (11741810_x_at) / RFU WNT11 (11732464_a_at) / Fold change /veh WNT11 (11732464_a_at) / RFU C10orf10 (11716521_a_at) / Fold change /veh C10orf10 (11716521_a_at) / RFU C5orf56 (11738089_at) / Fold change /veh C5orf56 (11738089_at) / RFU CYB561 (11721691_x_at) / Fold change /veh CYB561 (11721691_x_at) / RFU ANKRD19P (11752326_a_at) / Fold change /veh ANKRD19P (11752326_a_at) / RFU OR2T12 /// OR2T33 /// OR2T8 (11738714_s_at) / Fold change /veh OR2T12 /// OR2T33 /// OR2T8 (11738714_s_at) / RFU VCAN (11748164_a_at) / Fold change /veh VCAN (11748164_a_at) / RFU JSRP1 (11732532_at) / Fold change /veh JSRP1 (11732532_at) / RFU KRTAP10-11 (11738290_x_at) / Fold change /veh KRTAP10-11 (11738290_x_at) / RFU MYO3A (11730013_a_at) / Fold change /veh MYO3A (11730013_a_at) / RFU EBF3 (11725865_a_at) / Fold change /veh EBF3 (11725865_a_at) / RFU CAMK2N1 (11719241_x_at) / Fold change /veh CAMK2N1 (11719241_x_at) / RFU C5orf56 (11738088_a_at) / Fold change /veh C5orf56 (11738088_a_at) / RFU OLFML3 (11715873_a_at) / Fold change /veh OLFML3 (11715873_a_at) / RFU LOC100653217 /// NTM (11731650_a_at) / Fold change /veh LOC100653217 /// NTM (11731650_a_at) / RFU MAPK11 (11762145_a_at) / Fold change /veh MAPK11 (11762145_a_at) / RFU FIZ1 (11724087_x_at) / Fold change /veh FIZ1 (11724087_x_at) / RFU OASL (11726364_x_at) / Fold change /veh OASL (11726364_x_at) / RFU SOX15 (11748057_x_at) / Fold change /veh SOX15 (11748057_x_at) / RFU CD79A (11719716_a_at) / Fold change /veh CD79A (11719716_a_at) / RFU HIST1H1D (11736915_at) / Fold change /veh HIST1H1D (11736915_at) / RFU CASKIN2 (11723855_a_at) / Fold change /veh CASKIN2 (11723855_a_at) / RFU LOC730098 (11760151_x_at) / Fold change /veh LOC730098 (11760151_x_at) / RFU OR4N2 (11742367_at) / Fold change /veh OR4N2 (11742367_at) / RFU PRRT2 (11749266_a_at) / Fold change /veh PRRT2 (11749266_a_at) / RFU SNX32 (11753110_a_at) / Fold change /veh SNX32 (11753110_a_at) / RFU CDHR5 (11726645_a_at) / Fold change /veh CDHR5 (11726645_a_at) / RFU RCAN1 (11760418_a_at) / Fold change /veh RCAN1 (11760418_a_at) / RFU FAM167A (11723789_a_at) / Fold change /veh FAM167A (11723789_a_at) / RFU FAM26E (11764081_at) / Fold change /veh FAM26E (11764081_at) / RFU ISYNA1 (11749810_s_at) / Fold change /veh ISYNA1 (11749810_s_at) / RFU ACY1 (11761880_at) / Fold change /veh ACY1 (11761880_at) / RFU 11764098_at / Fold change /veh 11764098_at / RFU SAMD14 (11745864_x_at) / Fold change /veh SAMD14 (11745864_x_at) / RFU NPB (11741838_a_at) / Fold change /veh NPB (11741838_a_at) / RFU TMPRSS6 (11731388_a_at) / Fold change /veh TMPRSS6 (11731388_a_at) / RFU KRTAP10-2 (11738614_at) / Fold change /veh KRTAP10-2 (11738614_at) / RFU ARHGAP8 /// PRR5-ARHGAP8 (11727945_x_at) / Fold change /veh ARHGAP8 /// PRR5-ARHGAP8 (11727945_x_at) / RFU KRTAP5-7 /// NADSYN1 (11734609_at) / Fold change /veh KRTAP5-7 /// NADSYN1 (11734609_at) / RFU RASL12 (11751679_a_at) / Fold change /veh RASL12 (11751679_a_at) / RFU CDKN2B (11736163_a_at) / Fold change /veh CDKN2B (11736163_a_at) / RFU PRF1 (11729649_at) / Fold change /veh PRF1 (11729649_at) / RFU, ZNF638 /// ZNF638-IT1 / Fold change vs veh, ZNF638 /// ZNF638-IT1 / RFU, PANK3 / Fold change vs veh, PANK3 / RFU, SH3YL1 / Fold change vs veh, SH3YL1 / RFU, ZEB2 / Fold change vs veh, ZEB2 / RFU, NRIP1 / Fold change vs veh, NRIP1 / RFU, PTTG1IP / Fold change vs veh, PTTG1IP / RFU, CAPN2 / Fold change vs veh, CAPN2 / RFU, MED14 / Fold change vs veh, MED14 / RFU, SNORA58 / Fold change vs veh, SNORA58 / RFU, C1orf63 / Fold change vs veh, C1orf63 / RFU, LRRFIP1 / Fold change vs veh, LRRFIP1 / RFU, NDUFAF7 / Fold change vs veh, NDUFAF7 / RFU, SLC12A2 / Fold change vs veh, SLC12A2 / RFU, IBTK / Fold change vs veh, IBTK / RFU, ESF1 / Fold change vs veh, ESF1 / Fold change vs veh, TMEM50B / RFU, TAOK1 / Fold change vs veh, TAOK1 / RFU, ACBD3 / Fold change vs veh, ACBD3 / RFU, TMA16 / Fold change vs veh, TMA16 / RFU, RWDD3 / Fold change vs veh, RWDD3 / RFU, BCAT1 / Fold change vs veh, BCAT1 / RFU, EDEM3 / Fold change vs veh, EDEM3 / RFU, TMEM33 / Fold change vs veh, TMEM33 / RFU, WDR75 / Fold change vs veh, WDR75 / RFU, AHCTF1 / Fold change vs veh, AHCTF1 / RFU, TFRC / Fold change vs veh, TFRC / RFU, ZDHHC17 / Fold change vs veh, ZDHHC17 / RFU, NOM1 / Fold change vs veh, NOM1 / RFU, ARL8B / Fold change vs veh, ARL8B / RFU, ZBTB11 / Fold change vs veh, ZBTB11 / RFU, TAMM41 / Fold change vs veh, TAMM41 / RFU, KIAA1704 /// LOC100996395 / Fold change vs veh, KIAA1704 /// LOC100996395 / RFU, ING1 / Fold change vs veh, ING1 / RFU, TRMT61B / Fold change vs veh, TRMT61B / RFU, FUBP3 / Fold change vs veh, FUBP3 / RFU, TP53 / Fold change vs veh, TP53 / RFU, TNKS2 / Fold change vs veh, TNKS2 / RFU, ZFP14 / Fold change vs veh, ZFP14 / RFU, ACTR2 / Fold change vs veh, ACTR2 / RFU, PPP3R1 / Fold change vs veh, PPP3R1 / RFU, PIK3R1 / Fold change vs veh, PIK3R1 / RFU, HNRNPA1 / Fold change vs veh, HNRNPA1 / RFU, RNF170 / Fold change vs veh, RNF170 / RFU, ZNF28 / Fold change vs veh, ZNF28 / RFU, RNGTT / Fold change vs veh, RNGTT / RFU, OGT / Fold change vs veh, OGT / RFU, BRD1 / Fold change vs veh, BRD1 / RFU, MARS / Fold change vs veh, MARS / RFU, ZNF655 / Fold change vs veh, ZNF655 / RFU, FAHD1 / Fold change vs veh, FAHD1 / RFU, BDP1 / Fold change vs veh, BDP1 / RFU, LRRCC1 / Fold change vs veh, LRRCC1 / RFU, ARID1A / Fold change vs veh, ARID1A / RFU, ZNF146 / Fold change vs veh, ZNF146 / RFU, ZNF330 / Fold change vs veh, ZNF330 / RFU, GPN3 / Fold change vs veh, GPN3 / RFU, C9orf123 / Fold change vs veh, C9orf123 / RFU, N4BP2L2 / Fold change vs veh, N4BP2L2 / RFU, ARFIP1 / Fold change vs veh, ARFIP1 / RFU, FAM179B / Fold change vs veh, FAM179B / RFU, BCL10 / Fold change vs veh, BCL10 / RFU, UHRF1BP1L / Fold change vs veh, UHRF1BP1L / RFU, BET1 / Fold change vs veh, BET1 / RFU, CNOT2 / Fold change vs veh, CNOT2 / RFU, ZNF268 / Fold change vs veh, ZNF268 / Fold change vs veh, ZNF507 / RFU, DGCR2 / Fold change vs veh, DGCR2 / RFU, WDSUB1 / Fold change vs veh, WDSUB1 / Fold change vs veh, HSP90B1 /// MIR3652 / RFU, ADSS / Fold change vs veh, ADSS / RFU, GK / Fold change vs veh, GK / RFU, ZNF148 / Fold change vs veh, ZNF148 / RFU, TAF9 / Fold change vs veh, TAF9 / RFU, SLC1A5 / Fold change vs veh, SLC1A5 / RFU, SLMO2 / Fold change vs veh, SLMO2 / RFU, ABCC4 / Fold change vs veh, ABCC4 / RFU, LOC101060439 /// RAP1B / Fold change vs veh, LOC101060439 /// RAP1B / RFU, RFX7 / Fold change vs veh, RFX7 / RFU, GTPBP10 / Fold change vs veh, GTPBP10 / RFU, CNEP1R1 / Fold change vs veh, CNEP1R1 / RFU, BIVM-ERCC5 /// ERCC5 / Fold change vs veh, BIVM-ERCC5 /// ERCC5 / RFU, ILF3 / Fold change vs veh, ILF3 / RFU 11762660_at / Fold change /veh 11762660_at / RFU VCAN (11757783_s_at) / Fold change /veh VCAN (11757783_s_at) / RFU DDX43 (11728927_at) / Fold change /veh DDX43 (11728927_at) / RFU KRT8 (11758188_x_at) / Fold change /veh KRT8 (11758188_x_at) / RFU NKD1 (11759106_at) / Fold change /veh NKD1 (11759106_at) / RFU SRD5A1 (11742802_a_at) / Fold change /veh SRD5A1 (11742802_a_at) / RFU TPSAB1 /// TPSB2 (11721975_s_at) / Fold change /veh TPSAB1 /// TPSB2 (11721975_s_at) / RFU GSTM3 (11746129_a_at) / Fold change /veh GSTM3 (11746129_a_at) / RFU IL23R (11737362_x_at) / Fold change /veh IL23R (11737362_x_at) / RFU TMEM51 (11727254_a_at) / Fold change /veh TMEM51 (11727254_a_at) / RFU PIWIL2 (11732686_x_at) / Fold change /veh PIWIL2 (11732686_x_at) / RFU ORM1 (11744905_x_at) / Fold change /veh ORM1 (11744905_x_at) / RFU CCDC152 (11743942_at) / Fold change /veh CCDC152 (11743942_at) / RFU ECM1 (11717891_a_at) / Fold change /veh ECM1 (11717891_a_at) / RFU IL23R (11748794_a_at) / Fold change /veh IL23R (11748794_a_at) / RFU TNFAIP8L3 (11732012_x_at) / Fold change /veh TNFAIP8L3 (11732012_x_at) / RFU MBOAT4 (11741988_at) / Fold change /veh MBOAT4 (11741988_at) / RFU 11764193_at / Fold change /veh 11764193_at / RFU TMEM53 (11763286_at) / Fold change /veh TMEM53 (11763286_at) / RFU MAGEB2 (11727129_at) / Fold change /veh MAGEB2 (11727129_at) / RFU TMEM200A (11744735_a_at) / Fold change /veh TMEM200A (11744735_a_at) / RFU CCDC152 (11751479_a_at) / Fold change /veh CCDC152 (11751479_a_at) / RFU FAM211A (11726209_a_at) / Fold change /veh FAM211A (11726209_a_at) / RFU RGS16 (11746705_a_at) / Fold change /veh RGS16 (11746705_a_at) / RFU VCAN (11755009_s_at) / Fold change /veh VCAN (11755009_s_at) / RFU RHOB (11743442_s_at) / Fold change /veh RHOB (11743442_s_at) / RFU RGS16 (11720943_a_at) / Fold change /veh RGS16 (11720943_a_at) / RFU RGS16 (11720944_at) / Fold change /veh RGS16 (11720944_at) / RFU, VPS4B / Fold change vs veh, VPS4B / RFU, CREB1 / Fold change vs veh, CREB1 / RFU, DNAJC13 / Fold change vs veh, DNAJC13 / RFU, GNAQ / Fold change vs veh, GNAQ / RFU, CDK5R1 / Fold change vs veh, CDK5R1 / RFU, ZRANB3 / Fold change vs veh, ZRANB3 / RFU, CUL4A / Fold change vs veh, CUL4A / RFU, CCNY / Fold change vs veh, CCNY / RFU, UFL1 / Fold change vs veh, UFL1 / RFU, COG3 / Fold change vs veh, COG3 / RFU, DIAPH2 / Fold change vs veh, DIAPH2 / RFU, SKA2 / Fold change vs veh, SKA2 / RFU, AFF3 / Fold change vs veh, AFF3 / RFU, LMF1 / Fold change vs veh, LMF1 / RFU, IPO11 / Fold change vs veh, IPO11 / RFU, DFFB / Fold change vs veh, DFFB / RFU, FOXP1 / Fold change vs veh, FOXP1 / RFU, CARD8 / Fold change vs veh, CARD8 / RFU, STRN3 / Fold change vs veh, STRN3 / RFU, ADK / Fold change vs veh, ADK / RFU, RASSF2 / Fold change vs veh, RASSF2 / RFU, WIPF1 / Fold change vs veh, WIPF1 / RFU, LARP1B / Fold change vs veh, LARP1B / RFU, RASA1 / Fold change vs veh, RASA1 / RFU, RB1 / Fold change vs veh, RB1 / RFU, PPFIA1 / Fold change vs veh, PPFIA1 / RFU, MAT2A / Fold change vs veh, MAT2A / RFU, CCT5 / Fold change vs veh, CCT5 / RFU, WDR92 / Fold change vs veh, WDR92 / RFU, CUX1 / Fold change vs veh, CUX1 / RFU, TTC7A / Fold change vs veh, TTC7A / RFU, TMEM135 / Fold change vs veh, TMEM135 / RFU, DEPTOR / Fold change vs veh, DEPTOR / RFU, CPM / Fold change vs veh, CPM / RFU, DNAJB6 / Fold change vs veh, DNAJB6 / RFU, CACNA2D3 / Fold change vs veh, CACNA2D3 / RFU, DTX4 / Fold change vs veh, DTX4 / RFU, TFCP2 / Fold change vs veh, TFCP2 / RFU, GMCL1 /// GMCL1P1 / Fold change vs veh, GMCL1 /// GMCL1P1 / RFU, AEBP2 / Fold change vs veh, AEBP2 / RFU, SNHG1 /// SNORD22 /// SNORD25 /// SNORD26 /// SNORD27 /// SNORD28 /// SNORD29 /// SNORD31 / Fold change vs veh, SNHG1 /// SNORD22 /// SNORD25 /// SNORD26 /// SNORD27 /// SNORD28 /// SNORD29 /// SNORD31 / Fold change (Aza/veh), C12orf56 (ProbeSet 11735607_a_at) / Fold change (ACY-1035/veh), C12orf56 (ProbeSet 11735607_a_at) / Fold change (Aza/veh), FGFR1OP (ProbeSet 11751329_s_at) / Fold change (ACY-1035/veh), FGFR1OP (ProbeSet 11751329_s_at) / Fold change (Aza/veh), VPS36 (ProbeSet 11739960_a_at) / Fold change (ACY-1035/veh), VPS36 (ProbeSet 11739960_a_at) / RFU SYPL1 (11715823_x_at) / Fold change /veh SYPL1 (11715823_x_at) / RFU IGFBP7 (11715501_s_at) / Fold change /veh IGFBP7 (11715501_s_at) / RFU REEP3 (11722064_at) / Fold change /veh REEP3 (11722064_at) / RFU IGLL1 (11728026_x_at) / Fold change /veh IGLL1 (11728026_x_at): dose or concentration left out as unconfirmed.

`Nc1ccc(-c2cccs2)cc1NC(=O)c1ccc2c(c1)cc(C1CC1)n2CCN1CCOCC1` [ACY-1035]: the “Fold change /veh ARHGAP8 /// PRR5-ARHGAP8 (11727945_x_at)” value came out at 1.04.
